According to patent US20070155687A1, “Methods and compositions for altering cell function” (Alltech, Inc., priority 2005, published 2007):
Blank lines part the entries; values can stand above or below the compound they belong to.

How the values were obtained:
[1] = Body weight of mice on selenium diets; format: in vivo, mouse; conditions: diet 1 ppm Se, 100 days; compared across diets incl. selenium deficient diet (FIG. 1)
From the text: (§1) Animal Care. Male C57BL/6J mice were housed singly and started on the experimental diets described below immediately after weaning (21 days of age). The mice were maintained in the Shared Aging Rodent Facility at the William S. Middleton Memorial Veterans Administration Medical Center (Madison, Wis.). Temperature and humidity were maintained at constant levels. Room light was controlled to provide 12-hr cycles of light and dark.
Experimental diets were created by Harlan Teklad (Madison, Wis.). Selenium content of the diets was determined by Covance Inc. (Madison, Wis.). […]
Thus, it was an object of the present invention to determine whether compositions and methods of the present invention could alter the expression levels (e.g., niRNA levels) of various genes. One group of genes analyzed were genes classically associated with selenium. As described above, the expression levels of genes were analyzed between mice with and without dietary selenium, or, between mice fed different sources of selenium) (See, e.g., Table 1, below).

[2] = system: Amyloid beta (A4) precursor protein-binding, family B, member 1 (Apbb1 or Fe65); experiment: Cerebral cortex gene expression: Apbb1/Fe65; format: in vivo; conditions: mouse cerebral cortex; diet 1 ppm Se, 100 days; * significant relative to Se-deficient animals, P < 0.01
From the text: as §1
(§2) Experimental diets were created by Harlan Teklad (Madison, Wis.). Selenium content of the diets was determined by Covance Inc. (Madison, Wis.). Five (5) animals were included in each of the following treatment groups: a diet deficient in selenium (SD); a diet supplemented with selenomethionine (SM, obtained from Sigma, St. Louis, Mo.) such that the final selenium content of the diet was one (1) part per million; a diet supplemented with sodium selenite (SS, Sigma) such that the final concentration of selenium in this diet was one (1) part per million; or a diet supplemented with the yeast selenium SEL-PLEX (SP, Alltech, Lexington, Ky), such that the final concentration of selenium in this diet was one (1) part per million. SEL-PLEX. […]
(§3) Tissue sample preparation and microarray analysis. […] For intestinal expression studies, the intestine was flushed twice with saline solution and small intestine was measured and divided in three equal segments. […]

Cathepsin B = experiment: Cerebral cortex gene expression: Cathepsin B; format: in vivo; conditions: mouse cerebral cortex; diet 1 ppm Se, 100 days; * downregulation significant relative to Se-deficient mice
From the text: as §1, §2, §3

Nicastrin = experiment: Cerebral cortex gene expression: Nicastrin; format: in vivo; conditions: mouse cerebral cortex; diet 1 ppm Se, 100 days; * significant relative to Se-deficient animals, P < 0.01
From the text: as §1, §2, §3

[3] = system: Complement component 1, q subcomponent, alpha polypeptide, C1qa; experiment: Cerebral cortex gene expression: C1qa; format: in vivo; conditions: mouse cerebral cortex; diet 1 ppm Se, 100 days; vs selenium deficient; * = significant, p<0.01
From the text: as §1, §2, §3

[4] = system: Glutathione S-transferase, alpha 3 (Gsta3); experiment: Intestinal gene expression: Gsta3; format: in vivo; conditions: mouse intestine; diet 1 ppm Se, 100 days; vs Se-deficient diets; negative = down; NS = not significant
From the text: as §1, §2, §3

Gadd45b = experiment: Brain gene expression: Gadd45b; format: in vivo; conditions: mouse brain; diet 1 ppm Se, 100 days; * significant relative to Se-deficient animals
From the text: as §1, §2, §3

Glutathione Peroxidase 1 = experiment: Intestinal gene expression (microarray): Glutathione Peroxidase 1; format: in vivo; conditions: mouse intestine; diet 1 ppm Se, 100 days; vs selenium deficient; all p < 0.01
From the text: as §1, §2, §3

Glyoxalase 1 (Glo 1) = experiment: Intestinal gene expression: Glo1; format: in vivo; conditions: mouse intestine; diet 1 ppm Se, 100 days; vs selenium deficient
From the text: as §1, §2, §3

CORS-26 = experiment: Cerebral cortex gene expression: CORS-26; format: in vivo; conditions: mouse cerebral cortex; diet 1 ppm Se, 100 days; vs selenium deficient
From the text: as §1, §2, §3

[5] = system: transforming growth factor beta 2 (TGF-β2); experiment: Intestinal gene expression: TGF-β2; format: in vivo; conditions: mouse intestine; diet 1 ppm Se, 100 days; compared to controls
From the text: as §1, §2, §3

[6] = system: type II iodothyronine deiodinase, (Dio2); experiment: Intestinal gene expression: Dio2; format: in vivo; conditions: mouse intestine; diet 1 ppm Se, 100 days; vs selenium deficient
From the text: as §1, §2, §3

Neurogenin 3 (Neurog3) = experiment: Intestinal gene expression: Neurog3; format: in vivo; conditions: mouse intestine; diet 1 ppm Se, 100 days; vs selenium deficient
From the text: as §1, §2, §3

selenoprotein N1 (Sepn1) = experiment: Intestinal gene expression: selenoprotein N1; format: in vivo; conditions: mouse intestine; diet 1 ppm Se, 100 days; vs selenium deficient
From the text: as §1, §2, §3

[7] = system: LIM homeobox protein 8 gene (Lhx8); experiment: Intestinal gene expression: Lhx8; format: in vivo; conditions: mouse intestine; diet 1 ppm Se, 100 days; vs Se-deficient subjects
From the text: as §1, §2, §3

Prohibitin (Phb) = experiment: Intestinal gene expression: Prohibitin; format: in vivo; conditions: mouse intestine; diet 1 ppm Se, 100 days; vs selenium deficient; p<0.05
From the text: as §1, §2, §3

Structure (SMILES): O=[Se](O)O [Sod-sel, sodium selenite]
- body weights of mice [1]: No significant differences
- FC Apbb1 (Fe65) expression [2]: −1.32* fold
- FC Cathepsin B expression (Cathepsin B): −1.13* fold
- FC Nicastrin expression (Nicastrin): −1.67* fold
- FC C1qa expression [3]: −1.18 fold
- FC Gsta3 expression [4]: −2.3 fold
- FC Gadd45b expression (Gadd45b): −1.39* fold
- fold change (FC) in Glutathione Peroxidase 1 gene expression (Glutathione Peroxidase 1): 4.1 fold

- Glo1 expression, reduction of expression (Glyoxalase 1 (Glo 1)): not significantly affected
Structure (SMILES): C[Se]CC[C@H](N)C(=O)O [SeM, selenomethionine]
- CORS-26 expression, reduction in expression (CORS-26): no alteration
- TGF-β2 expression, upregulated [5]: not altered
- FC Apbb1 (Fe65) expression [2]: 1.02 fold
- Dio2 expression, down-regulation [6]: no ability to alter the expression levels
- FC Cathepsin B expression (Cathepsin B): −1.03 fold
- FC Nicastrin expression (Nicastrin): 1.04 fold
- Neurog3 expression, upregulated (Neurogenin 3 (Neurog3)): no significant alteration
- FC C1qa expression [3]: −1.11 fold
- selenoprotein N1 (Sepn1) expression level, increased (selenoprotein N1 (Sepn1)): not significantly affected
- Lhx8 expression, upregulated [7]: not significantly different
- FC Gadd45b expression (Gadd45b): −1.26 fold
- Prohibitin (Phb) expression, upregulated (Prohibitin (Phb)): 1.6 fold
- fold change (FC) in Glutathione Peroxidase 1 gene expression (Glutathione Peroxidase 1): 4.9 fold
